Values quoted from earlier work, collected in patent US6514490B2, “Compositions containing an antifungal and a cationic agent” (Janssen Pharmaceutica N.V., priority 1997, dated 2003).

Details: prior art medicated shampoo, anti-dandruff treatment

SMILES | number of patients not responding to particular medicated shampoo
CC(=O)N1CCN(c2ccc(OCC3COC(Cn4ccnc4)(c4ccc(Cl)cc4Cl)O3)cc2)CC1 (centres unmarked) [ketoconazole] | up to 30%
S=[Se]=S [selenium sulfide] | up to 40%
